From ChEMBL document CHEMBL1147225, “Tricin from a malagasy connaraceous plant with potent antihistaminic activity” (J Nat Prod, 2003)

Key:
[1] = tested on: RBL-2H3; assay: Antihistaminic activity in rat RBL2H3 cells assessed as inhibition of DNP-BSA-induced beta-hexosaminidase release preincubated for 10 mins before DNP-BSA challenge; type: functional, cell-based
[2] = Cytotoxicity against rat RBL2H3 cells at 500 uM by optical microscope; type: cell-based; conditions: rbl-2h3, 500 µM

| Structure (SMILES) | IC50 [1] [µM] | Activity [2] |
| --- | --- | --- |
| O=c1cc(-c2cc([N+](=O)[O-])cc([N+](=O)[O-])c2)oc2cc(O)cc(O)c12 | > 500 | Non-toxic |
| COc1cc(OC)cc(-c2cc(=O)c3c(O)cc(O)cc3o2)c1 | > 500 | Non-toxic |
| O=c1cc(-c2ccc(O)c(O)c2)oc2cc(O)cc(O)c12 [LUTEOLIN] | 58.2 | Non-toxic |
| COc1cc(-c2cc(=O)c3c(O)cc(O)cc3o2)cc(OC)c1O [TRICIN] | 4.83 | Non-toxic |
| COc1cc(-c2cc(=O)c3ccccc3o2)cc(OC)c1O | 97.5 | Non-toxic |
| COc1cc(-c2cc(=O)c3c(O)cc(O)cc3o2)cc(OC)c1OC | 424 | Non-toxic |
| COc1c(OC)c(OC)c2c(=O)cc(-c3ccc(O)c(O)c3)oc2c1OC | 203 | Non-toxic |
| COc1ccc(-c2cc(=O)c3c(O)cc(O)cc3o2)cc1OC | > 500 | Non-toxic |

Further lines, with some results ahead:

| IC50 [1] [µM] | Structure (SMILES) | Activity [2] |
| --- | --- | --- |
| > 500 | COc1cc(OC)cc(-c2cc(=O)c3ccccc3o2)c1 [3',5'-DIMETHOXYFLAVONE] | Non-toxic |
| > 500 | O=c1cc(-c2ccccc2)oc2cc(O)cc(O)c12 [CHRYSIN] | Non-toxic |
| 161 | COc1cc2oc(-c3ccc(O)cc3)cc(=O)c2c(O)c1OC [CIRSIMARITIN] | Non-toxic |
| > 500 | COc1c(OC)c(O)c2c(=O)cc(-c3ccc(O)c(O)c3)oc2c1OC [SIDERITIFLAVONE] | Non-toxic |
| 1540 | O=C(O)c1cc(=O)c2c(OCC(O)COc3cccc4oc(C(=O)O)cc(=O)c34)cccc2o1 [CROMOLYN SODIUM] | – |
| 179 | O=c1cc(-c2ccccc2)oc2cc(O)c(O)c(O)c12 [BAICALEIN] | Non-toxic |
| > 500 | COc1ccc(-c2cc(=O)c3c(OC)c(OC)c(OC)c(OC)c3o2)cc1 [TANGERETIN] | Non-toxic |
| 67.2 | O=c1cc(-c2ccc(O)cc2)oc2cc(O)c(O)c(O)c12 [SCUTELLAREIN] | Non-toxic |
| 124 | O=c1cc(-c2ccc(O)cc2)oc2cc(O)cc(O)c12 [APIGENIN] | Non-toxic |
| > 500 | COc1ccc(-c2cc(=O)c3ccccc3o2)cc1OC [3',4'-DIMETHOXYFLAVONE] | Non-toxic |
| 212 | COc1cc(-c2oc3cc(O)cc(O)c3c(=O)c2C(C)=O)cc(OC)c1O | Non-toxic |
